Test results reported in ChEMBL document CHEMBL1250526, “Delphinidin, a dietary anthocyanidin in berry fruits, inhibits human glyoxalase I” (Bioorg Med Chem, 2010).
Activity calls are given as the source filed them. The rule behind the calls is not given here.

Key:
[1] = target: Lactoylglutathione lyase (Homo sapiens, UniProt Q04760); assay: Inhibition of human recombinant glyoxalase 1 assessed as S-D-lactoylglutathione after 15 mins by spectrophotometric analysis
[2] = tested on: HL-60; assay: Antiproliferative activity against human HL60 cells at up to 100 uM after 48 hrs by MTS assay; assay type: functional, cell-based
[3] = tested on: HL-60; assay: Antiproliferative activity against human HL60 cells after 24 hrs by MTS assay; assay type: functional, cell-based; settings: HL-60, 24 h
[4] = tested on: HL-60; assay: Antiproliferative activity against human HL60 cells after 48 hrs by MTS assay; assay type: functional, cell-based
[5] = tested on: HL-60; assay: Antiproliferative activity against human HL60 cells at up to 100 uM by MTS assay; assay type: functional, cell-based; settings: TDE = time-dependent effect
[6] = tested on: HL-60; assay: Induction of apoptosis in human HL60 cells assessed as nucleosomal DNA fragmentation at up to 100 uM using ethidium bromide staining by agarose gel electrophoresis; assay type: functional, cell-based; settings: TDE = time-dependent effect
[7] = tested on: HL-60; assay: Induction of apoptosis in human HL60 cells assessed as nucleosomal DNA fragmentation after 48 hrs using ethidium bromide staining by agarose gel electrophoresis; assay type: functional, cell-based

Lactoylglutathione lyase, sequence (Q04760 whole entry): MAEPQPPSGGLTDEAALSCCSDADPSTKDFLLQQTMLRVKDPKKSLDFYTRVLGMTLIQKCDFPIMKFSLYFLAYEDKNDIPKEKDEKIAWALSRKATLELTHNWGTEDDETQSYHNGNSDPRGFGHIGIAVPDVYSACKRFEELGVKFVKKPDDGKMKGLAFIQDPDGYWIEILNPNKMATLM

Row | IC50 [1] | IC50 [3] | IC50 ([4]; HL-60, 48 h) | Compound | Activity [2] | Activity [4] | Activity [5] | Activity [6] | Activity [7]
1 | 16.4 µM |  |  | Oc1ccc(-c2[o+]c3cc(O)cc(O)c3cc2O)cc1 [PELARGONIDIN CHLORIDE] | Active |  |  |  | 
2 | 1.9 µM | 80 µM | 40 µM | Oc1cc(O)c2cc(O)c(-c3cc(O)c(O)c(O)c3)[o+]c2c1 [DELPHINIDIN CHLORIDE] |  | Dose-dependent effect | tde | tde | Dose-dependent effect
3 | 11.7 µM |  |  | Oc1cc(O)c2cc(O)c(-c3ccc(O)c(O)c3)[o+]c2c1 [CYANIDIN CHLORIDE] | Active |  |  |  | 
